Results as given in patent US4762820A, “Therapeutic treatment for congestive heart failure” (Trustees of Boston University, priority 1986, dated 1988).
Several values for one entry are separate records, joined by “and”; a condition that tells them apart may be missing. Equal entries are not always repeated.

Columns and labels:
arginine vasopressin [1] = experiment: Change in mean arterial pressure after AVP injection in rats, before and after nasal administration of the selective antagonist; format: in vivo, Wistar rats
Method: On the day before experimental testing, each rat was placed under ether anesthesia, and the right iliac artery and the right external jugular vein were catherized with PE-50 tubing. On the day following surgery, with the animal remaining unrestrained, the mean arterial pressure was monitored via a Hewlett-Packard 1280C transducer and a 7702B Recorder.
A vasopressin injection was prepared by diluting commercially obtained Pitressin at 20 U/ml concentration with 5% dextrose in water (hereinafter "D5W") to yield a sterile 20 mU/ml final concentration. […] All intravenous injections of vasopressin were flushed through using an additional volume comprising 0.2-0.3 ml of D5W.
Each experimental animal was tested in two stages: initially, two 0.1 ml injections each containing 2.0 millipressor units of arginine vasopressin were given through the venous catheter over a ten minute period and the individual changes in mean arterial pressure recorded. This stage identified each of the test animals as being susceptible to the physiological effects of vasopressin. The second stage of the experiment comprised release of 0.1 ml containing 250 ug of the selective antagonist onto the nasal mucosae of the rat via a PE-50 catheter which had been inserted into one of the nostrils to a depth of about four millimeters. This administration of the antagonist as a nasal spray onto the mucosae of the nose was followed by repeated injection of 0.1 ml volumes, each containing 2.0 millipressor units of arginine vasopressin, at 10, 20, 30, 60, and 120 minutes after the administration of the selective antagonist. The change in mean arterial pressure was recorded at each of these intervals after each injection of the vasopressin.

arginine vasopressin [2] = details: 0.5 mg i.v.; exogenous AVP 20 mU/kg; cited from earlier work

Row | Compound | effect of repeated 2.0 mU vasopressin injection after nasal spraying (arginine vasopressin [1]; 250 ug nasal, for at least the two hours of the test) | Changes in Mean Arterial Pressure After Antagonist Adm. + AVP Injections, 10' (arginine vasopressin [1]; individual rats, 250 ug antagonist onto nasal mucosae, 2.0 mU AVP i.v. 10 min later) | Changes in Mean Arterial Pressure After Antagonist Adm. + AVP Injections, 20' (arginine vasopressin [1]; individual rats, 250 ug antagonist onto nasal mucosae, 2.0 mU AVP i.v. 20 min later) | Changes in Mean Arterial Pressure After Antagonist Adm. + AVP Injections, 30' (arginine vasopressin [1]; individual rats, 250 ug antagonist onto nasal mucosae, 2.0 mU AVP i.v. 30 min later) | Changes in Mean Arterial Pressure After Antagonist Adm. + AVP Injections, 60' (arginine vasopressin [1]; individual rats, 250 ug antagonist onto nasal mucosae, 2.0 mU AVP i.v. 60 min later) | Changes in Mean Arterial Pressure After Antagonist Adm. + AVP Injections, 120' (arginine vasopressin [1]; individual rats, 250 ug antagonist onto nasal mucosae, 2.0 mU AVP i.v. 120 min later) | inhibition of the blood pressure response to exogenous arginine vasopressin (arginine vasopressin [2]) [%] | mean change in arterial pressure (arginine vasopressin [1]; 2.0 millipressor units AVP i.v., mean of the three test animals) | Changes in Mean Arterial Pressure After AVP Injection Alone (arginine vasopressin [1]; individual rats, 2.0 millipressor units AVP i.v., no antagonist)
1 | [1-(β-mercapto-β,β-cyclopentamethylenepropionic acid), 2-(O-methyl)tyrosine]arginine vasopressin [AVP Antagonist] | no significant effect | 0 mm Hg and +5 mm Hg | 0 mm Hg and +5 mm Hg | 0 mm Hg and +5 mm Hg | 0 mm Hg and +5 mm Hg | 0 mm Hg and +5 mm Hg | 80 | – | –
2 | NC(=O)CC[C@@H]1NC(=O)[C@H](Cc2ccccc2)NC(=O)[C@H](Cc2ccc(O)cc2)NC(=O)[C@@H](N)CSSC[C@@H](C(=O)N2CCC[C@H]2C(=O)N[C@@H](CCCN=C(N)N)C(=O)NCC(N)=O)NC(=O)[C@H](CC(N)=O)NC1=O [AVP, arginine vasopressin, reference compound] | – | – | – | – | – | – | – | about 35 mmHg | +37.5 mm Hg and +38.5 mm Hg and +29.0 mm Hg
